According to publication PMC5484173, “CB1 Allosteric Modulator Org27569 Is an Antagonist/Inverse Agonist of ERK1/2 Signaling” (Cannabis and Cannabinoid Research, 2016):
Where “and” joins values, the source holds several entries; their conditions need not be identical. Identical values can stand only once. Entries after “also recorded” stand apart in the source; their conditions may differ. Like-named read-outs stand apart in the source and are kept apart here.

Assays:
[1] = biological target: T1, human cannabinoid type-1 receptor (hCB1) (Homo sapiens, UniProt P21554); assay type: cell-based
T1 construct: expressed in transfected cells

GFP-rat CB1 receptor = biological target: T2, GFP-rat CB1 receptor (Rattus norvegicus, UniProt P20272); assay: Receptor internalization (puncta count) in GFP-rat CB1 HEK293 cells; assay type: cell-based; conditions: 20-120 min
T2 construct: expressed in transfected cells
Experimental: (§1) Vendor authenticated human embryonic kidney (HEK293; American Type Culture Collection, Rockville, MD) cells were cultured in 5% fetal bovine serum (FBS) defined (Hyclone Labs, Logan, UT) in Dulbecco's modified Eagle's medium (DMEM; Corning Cellgro, Manassas, VA) at 37°C and 5% CO2. Cell lines were generated as previously described[32] by transfection of the untagged hCB1 or N-terminally green fluorescent protein (GFP)-tagged rat CB1 receptor with Lipofectamine 2000 (Life Technologies, Gaithersburg, MD). Cells were maintained in a culture medium with geneticin (0.5 mg/mL; G418) and not used after 25 passages.
(§2) Cells were plated in poly-D-lysine (PDL)-coated 6-well plates or 100-mm dishes (for fractionation experiments) to a confluency of ∼70–80% and serum starved for 24 h before all treatments. For internalization experiments, cells were plated on PDL-coated cover-slips in a 24-well format. For experiments examining Gi/o protein mediation, cells were exposed to PTX (200 ng/mL) for 18 h before drug treatment when appropriate.
For internalization experiments, GFP-rat CB1 HEK293 cells were plated on PDL-coated cover-slips in the 24-well format and treated with vehicle (0.2% DMSO), CP55,940 (1 μM), Org27569 (10 μM), or both for 20–120 min. Cell images were taken blinded, converted to grayscale in Photoshop CS5, and then analyzed in ImageJ. Background was subtracted by using a “rolling ball” algorithm (rolling=3). Puncta within the range (size=3–400, circularity=0.01–1.00) were counted. These parameters were used based on image resolution and brightness. The same conditions were applied to all the images and image analyses.

[2] = tested on: hCB1-untransfected HEK293 cells; assay: phospho-ERK1/2 western blot in hCB1-untransfected HEK293 cells; assay type: cell-based, human; conditions: Org27569 10 μM, 20-min treatment
Experimental: as §1, with “passages. […]” for “passages.”
Protein amount (20 μg) was determined by the Bradford method, separated by 10% SDS-PAGE, and transferred to nitrocellulose membranes. […]
Membranes were rinsed thrice in 0.1% Tween-20 in PBS before incubating with LiCor secondary antibodies (IRDye® 800CW Goat anti-Mouse; 1:6666; IRDye 680RD Goat anti-Rabbit; 1:10,000) at room temperature for 1 h. Blots were imaged using LiCor Odyssey imaging software, and phospho-ERK signal was normalized to total ERK and data expressed as percent of vehicle control. […]
Data were normalized as percent vehicle control and analyzed by one- or two-way ANOVA with Newman–Keuls and Bonferroni post hoc tests, and data were considered significant with p<0.05. […]

[3] = biological target: T1, human cannabinoid type-1 receptor (hCB1); assay: Subcellular fractionation: phospho-ERK in nuclear-enriched and cytosolic fractions of hCB1 HEK293 cells; assay type: cell-based; conditions: Org27569 10 μM, 20 min, normalized to beta-actin
Experimental: as §2
Cells were treated by application of vehicle or antagonist followed immediately by application of vehicle or agonist and incubated in serum-free DMEM at 37°C for times indicated, then washed once with ice-cold phosphate-buffered saline (PBS), and lysed with buffer containing HEPES (50 mM), NaCl (150 mM), EDTA (1 mM), EGTA (1 mM), glycerol (10%), Triton X-100 (1%), MgCl2 (10 μM), NaF (25 mM), Na3VO4 (1 mM), para-nitrophenyl phosphate (20 mM) and EDTA-free protease inhibitor. Lysates were incubated on ice for 30 min, then centrifuged at 16,000 g for 30 min at 4°C, and supernatants were collected.
Cells were grown and treated as described above on 100-mm dishes and washed once with ice-cold PBS. […]
The initial S1 fraction was centrifuged at 10,000 g for 10 min and the resulting S2 fraction served as the cytosolic/membrane fraction. Protein was determined by the NanoDrop™ A280 assay (Thermo Scientific, Wilmington, DE). […]

CB1 = tested on: CB1; design: method as in PMID 26044547; conditions: Chinese hamster ovary cells, AlphaScreen SureFire kit; cited from earlier work

T1 sequence (P21554 whole entry): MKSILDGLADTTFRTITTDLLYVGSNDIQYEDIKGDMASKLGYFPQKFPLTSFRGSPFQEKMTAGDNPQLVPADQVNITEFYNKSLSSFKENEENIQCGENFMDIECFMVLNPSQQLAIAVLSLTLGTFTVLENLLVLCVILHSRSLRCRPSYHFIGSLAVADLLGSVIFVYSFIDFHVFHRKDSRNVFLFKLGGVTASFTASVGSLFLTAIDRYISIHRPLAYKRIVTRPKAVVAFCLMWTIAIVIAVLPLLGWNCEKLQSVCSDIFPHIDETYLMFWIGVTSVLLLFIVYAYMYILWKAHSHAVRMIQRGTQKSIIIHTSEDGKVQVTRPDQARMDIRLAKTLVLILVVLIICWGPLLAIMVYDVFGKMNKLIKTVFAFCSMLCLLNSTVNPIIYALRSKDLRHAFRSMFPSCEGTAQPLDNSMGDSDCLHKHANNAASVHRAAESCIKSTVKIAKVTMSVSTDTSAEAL
T2 sequence (P20272 whole entry): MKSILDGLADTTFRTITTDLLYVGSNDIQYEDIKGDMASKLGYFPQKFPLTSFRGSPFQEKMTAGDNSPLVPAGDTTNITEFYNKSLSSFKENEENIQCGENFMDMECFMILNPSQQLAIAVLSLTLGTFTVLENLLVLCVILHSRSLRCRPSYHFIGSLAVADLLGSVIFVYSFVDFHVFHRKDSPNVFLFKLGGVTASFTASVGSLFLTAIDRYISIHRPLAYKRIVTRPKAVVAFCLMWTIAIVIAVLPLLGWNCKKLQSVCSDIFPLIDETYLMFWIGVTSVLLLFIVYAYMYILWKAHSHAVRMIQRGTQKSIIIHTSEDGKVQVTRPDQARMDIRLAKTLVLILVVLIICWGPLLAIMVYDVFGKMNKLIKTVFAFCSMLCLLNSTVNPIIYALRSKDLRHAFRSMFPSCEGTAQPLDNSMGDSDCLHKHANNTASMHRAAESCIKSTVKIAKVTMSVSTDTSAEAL

CCCCC/C=C\C/C=C\C/C=C\C/C=C\CCCC(=O)OC(CO)CO [2-AG, 2-arachidonoylglycerol]
EC80 for ERK activation ([1]; agonist alone, hCB1 HEK293 cells, 5 min): 1.2 µM

CCCCCCC(C)(C)c1ccc([C@@H]2C[C@H](O)CC[C@H]2CCCO)c(O)c1 [CP55,940]
EC80 for ERK activation [1]: 0.0061 µM | effect on ERK phosphorylation, agonist alone [1]: robust increase in ERK phosphorylation | receptor internalization (puncta), agonist alone (GFP-rat CB1 receptor; CP55,940 1 μM): increases in puncta

CCc1c(C(=O)NCCc2ccc(N3CCCCC3)cc2)[nH]c2ccc(Cl)cc12 [Org27569]
bottom of the fit curve (phospho-ERK, percent of vehicle control) [1]: 111.3%±7.72% | effect on CP55,940-induced activation of ERK [1]: prevented CP55,940-induced activation of ERK | extent of antagonism of 2-AG-stimulated ERK activation [1]: did not completely attenuate | extent of antagonism of CP55,940-induced ERK activation [1]: fully antagonized | extent of antagonism of THC-induced ERK activation [1]: did not completely attenuate | pIC50±SE on ERK phosphorylation [1]: 6.78±0.273 and 6.783±0.273 | effect on ERK phosphorylation, compound alone ([1]; 10.0 μM alone, 5-min incubation): small but nonsignificant reduction of ERK phosphorylation | effect on phospho-ERK levels in PTX-treated cells ([1]; Org27569 10.0 μM, 20 min, after overnight PTX (200 ng/mL)): not in PTX-treated cells | effect on basal ERK phosphorylation ([1]; Org27569 alone (10 μM), 20-min treatment, hCB1-transfected HEK293 cells, no PTX): significantly reduced basal ERK phosphorylation; also recorded: reduced basal ERK phosphorylation in hCB1-transfected; also recorded: produced a reduction in phospho-ERK levels in control cells | bottom of the fit curve (phospho-ERK, percent of vehicle control) ([1]; Org27569 concentration-response against 2-AG at EC80 (1.2 μM), 5 min): 196%±123.2% | pIC50±SE on ERK phosphorylation ([1]; no probe agonist (alone, basal ERK phosphorylation), 20 min): 6.86±0.214 | IC50 ([1]; no probe agonist (alone, basal ERK phosphorylation), cells treated for 20 min): 0.139 µM | pIC50±SE on ERK phosphorylation ([1]; probe agonist 2-AG (1.2 μM, EC80), 5 min): 6.26±0.239 | IC50 ([1]; probe agonist 2-AG (1.2 μM, EC80), cells treated for 5 min, read-out: IC50 on ERK phosphorylation): 0.546 µM | pIC50±SE on ERK phosphorylation ([1]; probe agonist THC (494 nM in table, 500 nM in text; EC80), 5 min): 6.38±0.394 | IC50 ([1]; probe agonist THC (494 nM, EC80), cells treated for 5 min, read-out: IC50 on ERK phosphorylation): 0.417 µM | IC50 ([1]; read-out: IC50 on ERK phosphorylation): 0.165 µM | effect on basal ERK phosphorylation [2]: not in hCB1-untransfected HEK293 cells | receptor internalization, compound alone (GFP-rat CB1 receptor; Org27569 10 μM alone): did not significantly affect receptor internalization | effect on CP55,940-induced receptor internalization (increases in puncta) (GFP-rat CB1 receptor; Org27569 10 μM with CP55,940 1 μM): prevented | effect on cytosolic phospho-ERK levels ([3]; cytosolic fraction): significantly decreased | effect on nuclear phospho-ERK levels ([3]; nuclear-enriched fraction): significantly decreased | effect on THC-induced ERK activation (CB1): no effect
